Results published in ChEMBL document CHEMBL5725372, “Inhibitors of sodium glucose cotransporter 1” (2017).

Molecular target: T1, Sodium/glucose cotransporter 2 (Homo sapiens, UniProt P31639)
T1 sequence (P31639 whole entry): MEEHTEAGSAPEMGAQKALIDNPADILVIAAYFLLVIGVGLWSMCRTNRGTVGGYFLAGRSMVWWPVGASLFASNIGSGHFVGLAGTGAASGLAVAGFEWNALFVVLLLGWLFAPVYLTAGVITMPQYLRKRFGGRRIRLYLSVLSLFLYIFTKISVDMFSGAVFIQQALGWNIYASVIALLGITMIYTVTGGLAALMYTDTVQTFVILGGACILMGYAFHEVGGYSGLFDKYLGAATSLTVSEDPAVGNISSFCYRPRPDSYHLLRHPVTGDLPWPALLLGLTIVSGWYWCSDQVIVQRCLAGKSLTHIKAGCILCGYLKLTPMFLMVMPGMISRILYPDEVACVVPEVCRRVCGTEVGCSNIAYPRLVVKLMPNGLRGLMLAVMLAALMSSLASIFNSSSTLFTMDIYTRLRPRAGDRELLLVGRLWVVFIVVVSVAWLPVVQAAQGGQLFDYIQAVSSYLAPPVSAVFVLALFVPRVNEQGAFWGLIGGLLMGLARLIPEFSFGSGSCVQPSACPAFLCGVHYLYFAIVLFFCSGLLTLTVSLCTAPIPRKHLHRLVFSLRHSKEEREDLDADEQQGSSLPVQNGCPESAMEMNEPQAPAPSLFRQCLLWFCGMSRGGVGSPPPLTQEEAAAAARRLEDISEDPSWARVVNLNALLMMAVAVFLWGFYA
Assay: In Vitro Human SGLT2 Inhibition Assay: Human sodium/glucose co-transporter type 2 (SGLT2; accession number P31639; GI:400337) was cloned into pIRESpuro2 vector for mammalian expression (construct: HA-SGLT2-pIRESpuro2). HEK293 cells were transfected with the human HA-SGLT2-pIRESpuro2 vector and the bulk stable cell line was selected in presence of 0.5 μg/mL of puromycin. Human HA-SGLT2 cells were maintained in DMEM media containing 10% FBS, 1% GPS and 0.5 μg/mL of puromycin. The HEK293 cells expressing the human HA-SGLT2 were seeded in 384 well plates (30,000 cells/well) in DMEM media containing 10% FBS, 1% GPS and 0.5 μg/mL of puromycin, then incubated overnight at 37 C, 5% CO2. Cells were then washed with uptake buffer (140 mM NaCl, 2 mM KCl, 1 mM CaCl2, 1 mM MgCl2, 10 mM HEPES, 5 mM Tris, 1 mg/mL bovine serum albumin (BSA), pH 7.3). Twenty microliters of uptake buffer with or without testing compounds were added to the cells. Then, 20 microliters of uptake buffer containing 14C-AMG (100 nCi) were added to the cells. The cell plates were incubated at 37° C., 5% CO2 for 1-2 hours. After washing the cells with uptake buffer, scintillation fluid was added (40 microliters/well) and 14C-AMG uptake was measured by counting radioactivity using a scintillation coulter ([…]; Packard Instruments).

IC50: < 10 nM
Compound: CS[C@H]1O[C@@H](c2ccc(C)c(Cc3ccc(OCCNC(=O)NC(C)(C)CO)cc3)c2)[C@H](O)[C@@H](O)[C@@H]1O
